Results from US20120207737A1, “MEDICAL UTILITY OF GLYCAN-BINDING PROTEINS AND GLYCANS” (UNIVERSITY OF ZURICH, priority 2009, published 2012).
“Also recorded” adds a separate entry of the source.

B1: AAL: β-propeller lectin from the ascomycete Aleuria aurantia (Genbank BAA00451) (protein, UniProt P18891 2-313, looked up)
Fucose-specific lectin: PTEFLYTSKIAAISWAATGGRQQRVYFQDLNGKIREAQRGGDNPWTGGSSQNVIGEAKLFSPLAAVTWKSAQGIQIRVYCVNKDNILSEFVYDGSKWITGQLGSVGVKVGSNSKLAALQWGGSESAPPNIRVYYQKSNGSGSSIHEYVWSGKWTAGASFGSTVPGTGIGATAIGPGRLRIYYQATDNKIREHCWDSNSWYVGGFSASASAGVSIAAISWGSTPNIRVYWQKGREELYEAAYGGSWNTPGQIKDASRPTPSLPDTFIAANSSGNIDISVFFQASGVSLQQWQWISGKGWSIGAVVPTGTPAGW

Assays:
[1] = target: T1, Coprinopsis cinerea galectin CGL2, wild type (Genbank AAF34732) (Coprinopsis cinerea, UniProt Q9P4R8); experiment: Isothermal Titration Microcalorimetry (ITC), in vitro binding of C. cinerea galectin CGL2 to synthetic trisaccharide; details: 25° C.
T1 construct: amplifying the respective open reading frame from cDNA or available plasmids; made in house; host or cells: Escherichia coli BL21(DE3), vector pET24a
T1 sequence (Q9P4R8 whole entry): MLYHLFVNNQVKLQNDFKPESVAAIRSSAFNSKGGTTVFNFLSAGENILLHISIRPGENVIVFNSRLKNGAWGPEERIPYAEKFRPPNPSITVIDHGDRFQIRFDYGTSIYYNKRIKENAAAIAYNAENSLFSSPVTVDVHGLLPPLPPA
Description: The raw data is shown in the upper panel.
Bacterial cell pellets were resuspended in ice-cold phosphate-buffered saline (PBS) [30 mM Na-phosphate pH 7.3, 150 mM NaCl] containing 1 mM phenylmethylsulfonyl fluoride and ruptured using a French press. Cell debris was removed in two consecutive steps of centrifugation at 12000 g for 15 min and 27000 g for 30 min. The supernatant was incubated with lactosyl-sepharose at 4° C. for 1 h and CGL2 was finally eluted at room temperature in PBS containing 200 mM lactose. After size exclusion chromatography on Superose 6 10/300 GL (GE Healthcare) equilibrated in PBS, fractions containing the protein were pooled and concentrated using an Amicon Ultra-4 centrifugal filter device (Millipore) with a molecular weight cutoff of 10 kDa. Protein concentration was calculated by measuring the absorbance at 280 nm, assuming a relation of 1.25 mg mk^−1 to 1 unit absorbance at 280 nm for a path length of 1 cm. Conjugation of purified CGL2 to tetramethylrhodamine (TAMRA) (Molecular Probes) was performed as described in Walser, P. J. et al. (2005) Fungal Genet Biol 42, 293-305.
Experiments were performed with a VP-ITC isothermal titration calorimeter (Microcal, Mass., USA) at 25° C. using purified CGL2 (300 μM in TBS). Gal-β-1,4-Fuc-α-1,6-GlcNAc-β-O—C5H10-NH2 was dissolved in TBS at a concentration of 1.6 mM corrected based on purity estimate by ^1H-NMR (ca. 50-60%). The ligand was titrated into a cell containing the protein solution in 48 injections of 6 μl preceded by a single injection of 2 μl. All injections were performed at intervals of 3 min while stirring at 270 rpm. Experimental data were fitted to a theoretical titration curve using the MCS—ORIGIN software supplied by Microcal.

[2] = test system: C. elegans glycosylation mutants; experiment: Lectin sensitivity of C. elegans glycosylation mutants (development L1 to L4); format: in vivo, Caenorhabditis elegans; details: testing of C. elegans glycosylation mutants, forward genetic screen
Description: FIG. 4 is a graph showing the CGL2-sensitivity of various C. elegans glycosylation mutants. C. elegans mutants of the genotypes indicated in the X-coordinate were analysed for development from L1 to L4 on CGL2-expressing E. coli as described in the experimental procedures below. See Table 1 below for glycosylation processes encoded by the various C. elegans genes.
FIG. 8 is a bar graph illustrating the RedA(CCL2)-sensitivity of various C. elegans glycosylation mutants. C. elegans mutants of the indicated genotypes were analysed for development from L1 to L4 on RedA-expressing E. coli as described in the below experimental procedures. Mutants not analyzed yet are indicated as n.d. See Table 1 below for glycosylation processes encoded by the various C. elegans genes.
FIG. 9 is a bar graph illustrating the MOA-sensitivity test of various C. elegans glycosylation mutants. C. elegans mutants of the indicated genotypes were analysed for development from L1 to L4 on MOA-expressing E. coli as described in experimental procedures below. Mutants not analyzed yet are indicated as n.d. […]
FIG. 10 is a bar graph illustrating the AAL-sensitivity of various C. elegans glycosylation mutants. C. elegans mutants of the indicated genotypes were analysed for development from L1 to L4 on AAL-expressing E. coli as described in Experimental Procedures. […]

[3] = test system: C. elegans; experiment: C. elegans toxicity plate assay (development L1 to L4 on lectin-expressing E. coli); format: in vivo, Caenorhabditis elegans; details: lectin-expressing E. coli cells as food source
Description: (§1) FIG. 1 is a bar chart showing the toxicity of various fungal lectins towards C. elegans. C. elegans wildtype (N2) and pmk-1 mutant worms were analysed for development from L1 to L4 on lectin-expressing bacteria as described in the Experimental Procedures. The y-coordinate is the fraction of worms reaching L4 in the presence of bacteria expressing the lectins on the X-coordinate. Fungal lectins analyzed included C. cinerea galectins CGL1 (Genbank AAF34731) and CGL2 (Genbank AAF34732), galectin-related lectin CGL3 (Genbank ABD64675) and lectin RedA (CCL2) (Genbank ACD88750), Xerocomus chrysenteron lectin XCL (Genbank AAL73235) and its ortholog TAP1 from Sordaria macrospora (Genbank CAH03681), Aleuria aurantia lectin AAL (Genbank BAA00451) and Marasmius oreades agglutinin MOA (Genbank AAL47680).
Plasmids for bacterial expression of fungal lectins were constructed by amplifying the respective open reading frame from cDNA or available plasmids and ligating the resulting fragment into pET24a (Invitrogen) using introduced restriction sites. […]
Quantitative data on the effect of CGL2 on C. elegans development was acquired by placing 50 to 100 newly hatched L1 larvae of the indicated genotypes on the plates. After 72 h, the fraction of animals that reached L4 stage was determined.

[4] = test system: H. contortus; experiment: Haemonchus contortus toxicity assay (development L1 to L3, liquid, 96-well); format: in vivo; details: bacterivorous stages fed lectin-expressing E. coli
Description: as §1, with “FIG. 12” for “FIG. 1”, “towards H. contortus. The nematodes” for “towards C. elegans. C. elegans wildtype (N2) and pmk-1 mutant worms”, “to L3” for “to L4”, “reaching L3” for “reaching L4”, “cinerea galectin” for “cinerea galectins CGL1 (Genbank AAF34731) and”, “(Genbank ABD64675),” for “(Genbank ABD64675) and”
The toxicity towards the above-mentioned parasitic nematode was evaluated in a liquid assay using 96-well cell culture plates. H. contortus eggs were isolated from feces of an infected sheep and hatched on water-agar plates containing Kanamycin (50 μg/ml) and Amphotericin B (2.5 μg/ml). Approximately 30 L1 larvae were collected and transferred to each well, in a total volume of 150 μl 0.1× Earls solution. […] Plates were incubated at 28° C. in the dark, and percentage of larvae that developed to L3 were determined after 7 days.

[5] = TBS, model of one ligand-binding site per protein monomer

Molecule	entropy of binding (TΔS) ([1]; TBS) [kcal/mol]	enthalpy change (ΔH) [1, 5] [kcal/mol]	number of binding sites (N) [1, 5]	Kd ([1]; purified CGL2 300 μM in TBS, ligand 1.6 mM, one ligand-binding site per protein monomer, read-out: dissociation constant (Kd)) [µM]	glycan that mediates nematotoxicity / is recognized in C. elegans [2]	toxicity towards C. elegans [3]	toxicity towards H. contortus [4]
CC(=O)N[C@H]1[C@H](OCCCCCN)O[C@H](CO[C@@H]2O[C@@H](C)[C@@H](O[C@@H]3O[C@H](CO)[C@H](O)[C@H](O)[C@H]3O)[C@@H](O)[C@@H]2O)[C@@H](O)[C@@H]1O [Gal-β-1,4-Fuc-α-1,6-GlcNAc-β-O—C5H10—NH2]	-3.31	-8.85 ± 0.1	0.977±0.004	86.9			
B1					binds terminal Fuc on a yet to be identified nematode glycoconjugate; also recorded: dependent on GDP-fucose biosynthesis	toxic	toxic
